From ChEMBL document CHEMBL1201862, “PubChem BioAssay data set” (2004)
The source made the active and inactive calls. Rule as the data show it: actives have a measured IC50 and inactives only a lower limit.

Columns and labels:
Format in all cases: functional
Caspase-3 = biological target: T1, Caspase-3 (Homo sapiens, UniProt P42574);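 also: Dose-response selectivity test against caspase-3 for candidate inhibitors of sentrin-specific proteases (SENPs)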
T1 sequence (P42574 whole entry): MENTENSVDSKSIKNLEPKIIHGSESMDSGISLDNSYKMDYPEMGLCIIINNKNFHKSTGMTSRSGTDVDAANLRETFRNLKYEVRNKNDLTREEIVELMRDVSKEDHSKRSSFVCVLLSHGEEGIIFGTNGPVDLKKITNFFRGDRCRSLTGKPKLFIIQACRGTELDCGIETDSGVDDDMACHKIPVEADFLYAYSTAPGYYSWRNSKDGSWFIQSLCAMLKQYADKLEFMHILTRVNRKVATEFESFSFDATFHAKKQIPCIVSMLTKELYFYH

[1] = biological target: T2, Sentrin-specific protease 6 (Homo sapiens, UniProt Q9GZR1);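 also: Luminescence-based dose-response confirmatory assay of SENP6 inhibition, following up an ultra-high-throughput screen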
T2 sequence (Q9GZR1 whole entry): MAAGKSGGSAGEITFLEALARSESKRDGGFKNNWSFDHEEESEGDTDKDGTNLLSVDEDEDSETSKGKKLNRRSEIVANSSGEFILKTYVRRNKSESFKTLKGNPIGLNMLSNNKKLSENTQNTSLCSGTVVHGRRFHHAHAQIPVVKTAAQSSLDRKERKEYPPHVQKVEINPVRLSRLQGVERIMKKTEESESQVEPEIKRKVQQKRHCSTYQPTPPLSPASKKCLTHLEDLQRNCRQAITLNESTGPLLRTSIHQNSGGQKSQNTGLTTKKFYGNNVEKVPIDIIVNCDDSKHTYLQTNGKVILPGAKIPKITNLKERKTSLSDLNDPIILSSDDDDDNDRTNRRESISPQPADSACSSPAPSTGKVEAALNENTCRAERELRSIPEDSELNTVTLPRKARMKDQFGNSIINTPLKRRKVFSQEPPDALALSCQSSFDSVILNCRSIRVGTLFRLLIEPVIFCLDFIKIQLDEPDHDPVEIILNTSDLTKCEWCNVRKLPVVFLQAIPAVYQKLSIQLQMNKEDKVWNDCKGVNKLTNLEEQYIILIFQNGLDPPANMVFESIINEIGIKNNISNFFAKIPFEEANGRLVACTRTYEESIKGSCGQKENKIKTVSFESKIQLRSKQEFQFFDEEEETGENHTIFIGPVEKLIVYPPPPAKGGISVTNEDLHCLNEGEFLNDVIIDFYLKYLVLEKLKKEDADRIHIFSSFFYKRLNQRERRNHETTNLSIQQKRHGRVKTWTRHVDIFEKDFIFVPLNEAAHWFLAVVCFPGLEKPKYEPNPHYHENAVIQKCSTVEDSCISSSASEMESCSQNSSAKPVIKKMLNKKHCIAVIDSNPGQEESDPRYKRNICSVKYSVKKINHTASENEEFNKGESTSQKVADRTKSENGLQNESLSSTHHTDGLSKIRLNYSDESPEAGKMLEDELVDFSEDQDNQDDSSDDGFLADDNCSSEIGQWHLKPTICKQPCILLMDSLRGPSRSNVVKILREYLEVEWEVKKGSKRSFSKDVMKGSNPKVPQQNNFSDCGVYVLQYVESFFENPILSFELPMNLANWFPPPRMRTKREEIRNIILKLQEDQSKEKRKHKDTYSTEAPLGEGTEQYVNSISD

[2] = biological target: T3, Sentrin-specific protease 8 (Homo sapiens, UniProt Q96LD8);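 also: luminescence read-out of SENP8 inhibition, dose-response confirmation following an ultra-high-throughput screen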
T3 sequence (Q96LD8 whole entry): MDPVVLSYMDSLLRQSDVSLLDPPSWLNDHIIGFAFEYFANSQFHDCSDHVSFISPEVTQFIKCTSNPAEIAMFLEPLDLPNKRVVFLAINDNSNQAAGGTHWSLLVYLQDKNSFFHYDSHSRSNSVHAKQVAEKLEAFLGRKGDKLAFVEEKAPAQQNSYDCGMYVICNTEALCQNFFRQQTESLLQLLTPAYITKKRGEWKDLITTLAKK

[3] = biological target: T4, Apoptotic protease-activating factor 1 (Homo sapiens, UniProt O14727)
T4 sequence (O14727 whole entry): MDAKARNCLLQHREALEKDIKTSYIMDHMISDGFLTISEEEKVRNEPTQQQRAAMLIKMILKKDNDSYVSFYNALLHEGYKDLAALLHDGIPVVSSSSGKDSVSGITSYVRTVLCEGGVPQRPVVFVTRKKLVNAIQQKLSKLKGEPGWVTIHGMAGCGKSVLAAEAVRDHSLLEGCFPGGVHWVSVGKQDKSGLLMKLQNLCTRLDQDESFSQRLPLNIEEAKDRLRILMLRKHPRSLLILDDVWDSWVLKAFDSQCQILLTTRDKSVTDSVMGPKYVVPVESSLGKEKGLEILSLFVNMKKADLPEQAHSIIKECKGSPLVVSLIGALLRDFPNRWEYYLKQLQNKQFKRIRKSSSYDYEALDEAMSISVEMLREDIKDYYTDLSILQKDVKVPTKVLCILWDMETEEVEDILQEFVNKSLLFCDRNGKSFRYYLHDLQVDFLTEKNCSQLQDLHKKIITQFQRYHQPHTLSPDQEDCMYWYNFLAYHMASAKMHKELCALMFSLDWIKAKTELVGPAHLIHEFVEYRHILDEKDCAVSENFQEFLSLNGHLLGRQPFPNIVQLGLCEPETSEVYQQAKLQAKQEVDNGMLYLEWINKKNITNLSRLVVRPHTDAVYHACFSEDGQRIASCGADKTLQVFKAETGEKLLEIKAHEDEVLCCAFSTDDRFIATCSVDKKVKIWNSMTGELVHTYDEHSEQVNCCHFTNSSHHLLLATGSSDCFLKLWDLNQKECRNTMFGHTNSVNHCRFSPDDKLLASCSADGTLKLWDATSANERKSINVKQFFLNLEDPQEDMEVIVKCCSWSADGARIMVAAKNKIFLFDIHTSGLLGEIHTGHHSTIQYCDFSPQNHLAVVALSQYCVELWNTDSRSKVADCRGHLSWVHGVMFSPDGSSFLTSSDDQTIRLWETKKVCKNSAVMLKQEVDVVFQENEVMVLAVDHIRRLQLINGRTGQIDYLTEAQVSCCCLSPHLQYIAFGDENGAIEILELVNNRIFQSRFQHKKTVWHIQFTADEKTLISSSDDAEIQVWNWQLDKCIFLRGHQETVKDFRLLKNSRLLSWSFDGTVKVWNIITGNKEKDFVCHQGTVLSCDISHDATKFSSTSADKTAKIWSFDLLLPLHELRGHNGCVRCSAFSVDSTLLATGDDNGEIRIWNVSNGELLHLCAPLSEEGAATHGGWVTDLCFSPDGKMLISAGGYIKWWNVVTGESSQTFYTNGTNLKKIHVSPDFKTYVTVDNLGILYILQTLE

Row | Structure (SMILES) | IC50 (Caspase-3) | IC50 [1] | IC50 [2] | IC50 [3]
1 | CC(C)n1cnc2c(NCc3ccccc3)cc(OCC3CCN(C)CC3)cc21 | 7.82 µM (active) | 3.95 µM (active) | 4.97 µM (active) | 6.63 µM (active)
2 | CC(C)N(C(=O)Nc1ccc2nsnc2c1)C(C)C | 5.81 µM (active) | 2.39 µM (active) | 2.41 µM (active) | 6.61 µM (active)
3 | NS(=O)(=O)c1ccc(NC2=CC(=O)C(=O)c3ccccc32)cc1 | 9.75 µM (active) | 2.89 µM (active) | 4.96 µM (active) | 2.08 µM (active)
